This note sets out measurements from BindingDB's records for patent US20240279215 (Cytokinetics, Incorporated, 2024).

In the experiment the target is Nicotinamide phosphoribosyltransferase (Homo sapiens, UniProt P43490). Nature of the experiment: NMN Fluorescence Biochemical Assay. Here is the method: Compounds described herein were assayed for their ability to stimulate the synthesis of nicotinamide mononucleotide (NMN) by the enzyme NAMPT. The human recombinant enzyme assay measures the activation of the enzyme activity by compounds using recombinant enzyme and substrates in a buffered cell-free system. The assay conditions closely mimic cellular environments. Dose responses were measured using an assay to detect the formation of nicotinamide mono-nucleotide. All experiments were performed in the 384-well format. Generally, 0.5 μL of DMSO containing varying concentrations of the test compound was mixed with 10 μL of the enzyme reagent solution. Enzyme reactions were initiated with the addition of […] containing the substrates. The final assay conditions were as follows: 6 nM human NAMPT, 2.5 mM ATP, 20 μM PRPP and 150 μM nicotinamide in 50 mM HEPES, pH 7.2, 1 mM DTT, 1 mM CHAPS 50 mM NaCl, 100 mM MgCl2. Following an incubation of 60 min at ambient temperature, 10 μL of 20% acetophenone in DMSO was added, followed by 10 μL of 2 M KOH and 40 μL of formic acid. The plates were read for fluorescence (Excitation/Emission=355 nm/460 nm) using an EnVision plate reader after 40 mins of incubation at ambient temperature.
Sequence of Nicotinamide phosphoribosyltransferase (P43490 whole entry): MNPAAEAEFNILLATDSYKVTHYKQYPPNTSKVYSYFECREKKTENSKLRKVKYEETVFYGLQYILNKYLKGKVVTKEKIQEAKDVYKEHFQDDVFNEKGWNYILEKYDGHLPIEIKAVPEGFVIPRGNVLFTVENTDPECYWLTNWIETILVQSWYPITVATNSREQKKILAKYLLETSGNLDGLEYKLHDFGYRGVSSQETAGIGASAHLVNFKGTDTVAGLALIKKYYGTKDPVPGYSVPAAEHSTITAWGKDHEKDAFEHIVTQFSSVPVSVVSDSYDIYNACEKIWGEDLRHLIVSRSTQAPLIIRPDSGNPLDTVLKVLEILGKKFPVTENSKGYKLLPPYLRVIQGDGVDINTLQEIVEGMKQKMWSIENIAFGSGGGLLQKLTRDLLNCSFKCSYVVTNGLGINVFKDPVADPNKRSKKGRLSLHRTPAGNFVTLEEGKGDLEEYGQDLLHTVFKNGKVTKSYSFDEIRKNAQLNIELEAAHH

Regarding `O=C(Nc1ccc(CC2CCN(CC(F)F)CC2)cc1)OCc1ccncc1` [US20240279215, Compound 52], it took 5.38 µM to reach a half-maximal effect (EC50). The compound `O=C(Nc1ccc(CN2C(=O)CC[C@@H]2c2cccnc2)cc1)OCc1ccc(Cl)cc1` [US20240279215, Compound 249] displayed an EC50 of 15.8 µM. Compound `CN(Cc1ccccc1)S(=O)(=O)c1ccc(NC(=O)OCc2ccc(Cl)cc2)cc1` [US20240279215, Compound 335] showed an EC50 of 7.94 µM.

`CN(C1CCOC1)S(=O)(=O)c1ccc(NC(=O)OCc2ccc(Cl)cc2)cc1` (centres undefined) [US20240279215, Compound 342] had an EC50 of 11.5 µM.

As a reminder, the EC50 is the concentration giving half of the maximal effect. The low end stands for a more potent agent, the high end for a less potent agent.
